Values of other authors as cited in patent US8148152B2, “Method for the preparation of embryoid bodies (EBs) and uses thereof” (Axiogenesis AG, priority 2003, dated 2012).

Key:
[1] = system: ES cell-derived cardiomyocytes; conditions: test compounds with known cardiotoxic potential; added on day 14, effect on fluorescent areas during 72 hours; data only in FIG. 6
[2] = system: EBs from mouse embryonic stem cells (clone D3, pαMHC-GFP); conditions: test compounds with known embryotoxic potential from ECVAM list; 10^-8 to 10^-5 M; fluorescence on day 14 as percent of control (0.1% DMSO); data only in FIG. 5

| Structure (SMILES) | cardiotoxic potential (classification of test compound) [1] | embryotoxic potential (classification of test compound) [2] |
| --- | --- | --- |
| C[C@@H]1C[C@H]2[C@@H]3CCC4=CC(=O)C=C[C@]4(C)[C@@]3(F)[C@@H](O)C[C@]2(C)[C@@]1(O)C(=O)CO [dexamethasone] | non cardiotoxic |  |
| COC(=O)c1ccccc1C(=O)OC [dimethylphtalate] |  | non-embryotoxic |
| COc1cccc2c1C(=O)c1c(O)c3c(c(O)c1C2=O)C[C@@](O)(C(=O)CO)C[C@@H]3O[C@H]1C[C@H](N)[C@H](O)[C@H](C)O1 [doxorubicine] | cardiotoxic |  |
| CN(Cc1cnc2nc(N)nc(N)c2n1)c1ccc(C(=O)N[C@@H](CCC(=O)O)C(=O)O)cc1 [methotrexate] |  | strong embryotoxic |
| CCCC(CCC)C(=O)O [valproic acid] |  | weak embryotoxic |
